Results reported in patent US4068074A, “Cephalosporin derivatives having at the 3-position of the cephem ring a heterocyclic thiomethyl group with a carboxy or sulfo group and at the 7-position of the cephem ring an α-heterocylic acylaminophenyl-acetamide group” (priority 1974, dated 1978).
Converted amounts (≈) assume the structure as drawn. Like-named read-outs stand apart in the source and are kept apart here.

What was measured:
[1] = tested on: Staphylococcus Onuma; assay: MIC against bacteria (Table I), strain (18); format: cell-based
From the text: (§1) Now, for illustrating the excellent pharmacological effects of the compounds of this invention, the values of MIC (γ/ml.) of the compounds against various bacteria are shown in Table 1, in which the compounds of this invention used are shown by example numbers.
(18) Staphylococcus Onuma

[2] = Solubility of salts in water (Table 2); format: physicochemical; details: disodium salt, water, showing pH 7.4; read-out: Solubility: disodium salt dissolved in water in an amount of
From the text: An advantage of the compounds of this invention is that the salts, for example, sodium salts of these compounds are readily soluble in water at pH of living bodies, which makes them suitable for injections at high concentration. The solubility of these compounds are illustrated in Table 2 together with a control example.

[3] = tested on: Proteus vulgaris 0X 19US; assay: MIC against bacteria (Table I), strain (2); format: cell-based; details: 0X19US
From the text: as §1
(2) Proteus vulgaris 0X 19US

[4] = tested on: Staphylococcus aureus 209P; assay: MIC against bacteria (Table I), strain (16); format: cell-based
From the text: as §1
(16) Staphylococcus aureus 209P

[5] = tested on: Salmonella typhi H901 W; assay: MIC against bacteria (Table I), strain (9); format: cell-based; details: Salmonella enterica, TYPHI
From the text: as §1
(9) Salmonella typhi H901 W

[6] = tested on: Salmonella enteritidis; assay: MIC against bacteria (Table I), strain (10); format: cell-based; details: Salmonella enterica
From the text: as §1
(10) Salmonella enteritidis

[7] = tested on: Psuedomonas ovalis IMA 1002; assay: MIC against bacteria (Table I), strain (6); format: cell-based; details: (6) Psuedomonas ovalis IMA 1002; read-out: MIC
From the text: as §1
(6) Psuedomonas ovalis IMA 1002

[8] = tested on: Shigella sonnei II 37148; assay: MIC against bacteria (Table I), strain (12); format: cell-based; details: II37148; (12) Shigella sonnei II 37148; read-out: MIC
From the text: as §1

[9] = tested on: Escherichia coli kauffmann 0-1; assay: MIC against bacteria (Table I), strain (7); format: cell-based; details: Escherichia coli
From the text: as §1
(7) Escherichia coli kauffmann 0-1

[10] = tested on: Proteus mirabilis IXM OM-19; assay: MIC against bacteria (Table I), strain (3); format: cell-based; details: IXMOM19; (3) Proteus mirabilis IXM OM-19; read-out: MIC
From the text: as §1
(3) Proteus mirabilis IXM OM-19

[11] = tested on: Pseudomonas aeruginosa 99 (Gentamycin resistant); assay: MIC against bacteria (Table I), strain (5); format: cell-based
From the text: as §1
(5) Pseudomonas aeruginosa 99 (Gentamycin resistant)

[12] = tested on: Pseudomonas aeruginosa ATCC 8689; assay: MIC against bacteria (Table I), strain (4); format: cell-based; details: ATCC8689; (4) Pseudomonas aeruginosa ATCC 8689; read-out: MIC
From the text: as §1
(4) Pseudomonas aeruginosa ATCC 8689

[13] = tested on: Bacillus subtilis ATCC 6633; assay: MIC against bacteria (Table I), strain (14); format: cell-based; details: ATCC6633; (14) Bacillus subtilis ATCC 6633; read-out: MIC
From the text: as §1
(14) Bacillus subtilis ATCC 6633

[14] = tested on: Shigella flexneri 2a 1675; assay: MIC against bacteria (Table I), strain (11); format: cell-based; details: 2A1675; (11) Shigella flexneri 2a 1675; read-out: MIC
From the text: as §1

[15] = tested on: Staphylococcus Shimanishi; assay: MIC against bacteria (Table I), strain (17); format: cell-based
From the text: as §1
(17) Staphylococcus Shimanishi

[16] = tested on: Micrococcus flavus ATCC 10240; assay: MIC against bacteria (Table I), strain (15); format: cell-based; details: ATCC10240
From the text: as §1
(15) Micrococcus flavus ATCC 10240

[17] = tested on: Proteus vulgaris OXK US; assay: MIC against bacteria (Table I), strain (1); format: cell-based; details: (1) Proteus vulgaris OXK US; read-out: MIC
From the text: as §1
(1) Proteus vulgaris OXK US

[18] = tested on: Klebsiella pneumoniae ATCC 10031; assay: MIC against bacteria (Table I), strain (8); format: cell-based; details: ATCC10031
From the text: as §1
(8) Klebsiella pneumoniae ATCC 10031

[19] = tested on: Bacillus megatherium 10778; assay: MIC against bacteria (Table I), strain (13); format: cell-based; details: (13) Bacillus megatherium 10778; read-out: MIC
From the text: as §1

[20] = Residual antibacterial activity after incubation with 90% plasma (Table 4); format: in vitro ADME, male Sprague-Dowley rat; details: 90% rat plasma
Method: (§2) The relation between the reaction period of time and the antibacterial activity (residual activity, %) when these compounds are incubated with the plasma and the liver homogenate of a male Sprague-Dowley rat is shown in Table 4. The residual antibacterial activity was measured by a thin-layer cup method according to Bacillus subtilis ATCC 6633.
A*Residual activity (%) when incubated with 90% plasma.

[21] = Residual antibacterial activity after incubation with 10% liver homogenate (Table 4); format: in vitro ADME, male Sprague-Dowley rat; details: 10% rat liver homogenate
Method: as §2
B*Residual activity (%) when incubated with 10% liver homogenate.

[22] = (16) Staphylococcus aureus 209P, read-out: MIC
[23] = (10) Salmonella enteritidis, read-out: MIC
[24] = (17) Staphylococcus Shimanishi, read-out: MIC
[25] = (2) Proteus vulgaris 0X 19US, read-out: MIC
[26] = (5) Pseudomonas aeruginosa 99 (Gentamycin resistant), read-out: MIC
[27] = (15) Micrococcus flavus ATCC 10240, read-out: MIC
[28] = (8) Klebsiella pneumoniae ATCC 10031, read-out: MIC

Row | Structure (SMILES) | MIC ([1]; Staphylococcus) [µg/mL] | solubility [2] [mg/mL] | MIC [4, 22] [µg/mL] | MIC [5] [µg/mL] | MIC [6, 23] [µg/mL] | MIC [7] [µg/mL] | MIC [8] [µg/mL] | MIC [9] [µg/mL] | MIC [10] [µg/mL] | MIC [12] [µg/mL] | MIC [13] [µg/mL] | MIC [14] [µg/mL] | MIC [15, 24] [µg/mL] | MIC ([16]; Micrococcus flavus) [µg/mL] | MIC [17] [µg/mL] | MIC [19] [µg/mL] | MIC [3, 25] [µg/mL] | MIC ([6]; ENTERITIDIS) [µg/mL] | MIC [11, 26] [µg/mL] | MIC [18, 28] [µg/mL] | also measured
1 | O=C(O)Cc1nnc(SCC2=C(C(=O)O)N3C(=O)[C@@H](NC(=O)[C@H](NC(=O)c4cnccc4O)c4ccccc4)[C@H]3SC2)s1 [Example 25, 7-[D-α-(4-hydroxynicotinoylamido)-α-phenylacetamido]-3-(5-carboxymethyl-1,3,4-thiadiazol-2-yl)thiomethyl-Δ^3-cephem-4-carboxylic acid] | 6.25 (≈ 9.72 µM) | > 200 | 0.78 (≈ 1.21 µM) | 0.39 (≈ 0.607 µM) | 0.19 (≈ 0.296 µM) | 12.5 (≈ 19.4 µM) | 6.25 (≈ 9.72 µM) | 3.13 (≈ 4.87 µM) | 0.39 (≈ 0.607 µM) | 12.5 (≈ 19.4 µM) | 0.39 (≈ 0.607 µM) | 1.56 (≈ 2.43 µM) | 3.13 (≈ 4.87 µM) | 6.25 (≈ 9.72 µM) | < 0.09 | 0.39 (≈ 0.607 µM) | – | – | – | – | MIC ([3]; Proteus vulgaris): 1.56 µg/mL (≈ 2.43 µM); MIC ([11]; Pseudomonas aeruginosa): 6.25 µg/mL (≈ 9.72 µM); MIC ([18]; Klebsiella pneumoniae): 6.25 µg/mL (≈ 9.72 µM)
2 | O=C(O)C1=C(CSc2nnc(SCCS(=O)(=O)O)s2)CS[C@@H]2[C@H](NC(=O)[C@H](NC(=O)c3cnccc3O)c3ccccc3)C(=O)N12 [Example 9, 7-[D-α-(4-hydroxynicotinoylamido)-α-phenylacetamido]-3-(5-sulfoethylthio-1,3,4-thiadiazol-2-yl)thiomethyl-Δ^3-cephem-4-carboxylic acid] | 6.25 (≈ 8.62 µM) | – | 0.78 (≈ 1.08 µM) | 1.56 (≈ 2.15 µM) | – | 12.5 (≈ 17.2 µM) | 6.25 (≈ 8.62 µM) | 3.13 (≈ 4.32 µM) | 0.39 (≈ 0.538 µM) | 12.5 (≈ 17.2 µM) | 0.39 (≈ 0.538 µM) | 1.56 (≈ 2.15 µM) | 3.13 (≈ 4.32 µM) | – | 0.19 (≈ 0.262 µM) | 0.39 (≈ 0.538 µM) | 0.39 (≈ 0.538 µM) | 0.39 (≈ 0.538 µM) | 12.5 (≈ 17.2 µM) | 3.13 (≈ 4.32 µM) | remaining at 0.25 h ([20]; 90% plasma, 15 minute): 103%; remaining at 0.5 h ([20]; 90% plasma, 30 minute): 92%; remaining at 1.5 h ([20]; 90% plasma, 90 minute): 100%; Residual activity ([20]; 0 minute): 100%; MIC [16, 27]: 3.13 µg/mL (≈ 4.32 µM); remaining at 0.25 h ([21]; 10% liver homogenate, 15 minute, read-out: Residual activity): 100%; remaining at 0.5 h ([21]; 10% liver homogenate, 30 minute, read-out: Residual activity): 100%; remaining at 1.5 h ([21]; 10% liver homogenate, 90 minute, read-out: Residual activity): 102%; Residual activity ([21]; 0 minute): 100%
3 | O=C(O)CSc1cc(SCC2=C(C(=O)O)N3C(=O)[C@@H](NC(=O)[C@H](NC(=O)c4cnccc4O)c4ccccc4)[C@H]3SC2)ncn1 [Example 16] | 6.25 (≈ 9.35 µM) | > 200 | 0.78 (≈ 1.17 µM) | 1.56 (≈ 2.33 µM) | 0.78 (≈ 1.17 µM) | 25 (≈ 37.4 µM) | 6.25 (≈ 9.35 µM) | 6.25 (≈ 9.35 µM) | 0.19 (≈ 0.284 µM) | 25 (≈ 37.4 µM) | 0.19 (≈ 0.284 µM) | 3.13 (≈ 4.68 µM) | – | 3.13 (≈ 4.68 µM) | < 0.09 | 0.39 (≈ 0.583 µM) | < 0.09 | – | 25 (≈ 37.4 µM) | 12.5 (≈ 18.7 µM) | MIC ([15]; Staphylococcus): 6.25 µg/mL (≈ 9.35 µM)
4 | Cc1nc(SCC2=C(C(=O)O)N3C(=O)[C@@H](NC(=O)[C@H](NC(=O)c4cnccc4O)c4ccccc4)[C@H]3SC2)sc1CC(=O)O [Example 23, 7-[D-α-(4-hydroxynicotinoylamido)-α-phenylacetamido]-3-(5-carboxymethyl-4-methylthiazol-2-yl)thiomethyl-Δ^3-cephem-4-carboxylic acid] | – | > 200 | – | 1.56 (≈ 2.38 µM) | – | 12.5 (≈ 19.1 µM) | 3.13 (≈ 4.77 µM) | 1.56 (≈ 2.38 µM) | 0.19 (≈ 0.29 µM) | 12.5 (≈ 19.1 µM) | 0.78 (≈ 1.19 µM) | 1.56 (≈ 2.38 µM) | 12.5 (≈ 19.1 µM) | – | < 0.09 | 0.39 (≈ 0.595 µM) | < 0.09 | 0.39 (≈ 0.595 µM) | 6.25 (≈ 9.53 µM) | 6.25 (≈ 9.53 µM) | MIC ([1]; (18) Staphylococcus Onuma, read-out: MIC): 12.5 µg/mL (≈ 19.1 µM); MIC ([4]; Staphylococcus aureus, 209P): 3.13 µg/mL (≈ 4.77 µM); MIC [16, 27]: 12.5 µg/mL (≈ 19.1 µM)
